The record followed here is patent publication US20240059729A1, “MULTIFUNCTIONAL CYCLIC DINUCLEOTIDE AND USE THEREOF” (TYLIGAND BIOSCIENCE (SHANGHAI) LIMITED, priority 2020, published 2024).

Assay [1] deals with IFN-β secretion by THP-1 cells. The experiment in a line: Activation of IFN-β secretion by THP-1 cells (Human IFN-beta ELISA). The note with it: for EC50 / Activating effect on IFN-β secretion / STING agonist activity (in words): THP-1 cells; for EC50: 24 hours, IFN-β ELISA; for Activating effect on IFN-β secretion / STING agonist activity (in words): EC50 compared with 2′,3′-cGAMP and ADU-S100; for Highest concentration of IFN-β secreted by stimulated THP-1 cells: compared with ADU-S100. It counts as cell-based. The method, then: THP-1 cell, a human monocytic leukemia cell line, has the STING phenotype of HAQ type, i.e., R71H-G230A-R293Q. This assay used the Human IFN-beta DuoSet ELISA Kit from R & D (R & D, Cat #DY814-05) and the DuoSet ELISA Ancillary Reagent Kit 2 (R & D, Cat #DY008) to evaluate the activation of IFN-β secretion from THP-1 cells by representative compounds of the invention.
In thawing the THP-1 cells (ATCC #TIB-202), a cell freezing tube was quickly shaken in a water bath at 37° C. to thaw the cells within 1 min. The thawed cell suspension was taken and evenly mixed with an RPMI1640 medium (Hyclone, product #SH30027.01) containing 10% FBS (Life Technology, Cat #10099-141), centrifuged for 5 min at 1000 rpm, and the supernatant was discarded. The cell pellet was resuspended in 5 mL of the complete medium (RPMI 1640 medium containing 10% FBS), placed into a cell culture flask with a bottom area of 25 cm^2, and incubated in a cell incubator at 37° C., 5% CO2 and 95% humidity. When the cell confluence reached about 80%, the cells were passaged. All the cells in the culture flask were transferred to a 15 mL centrifuge tube, centrifuged for 5 min at 1000 rpm, and the supernatant was discarded. 5 mL of fresh complete medium was added to re-suspend the cell pellet, 1 mL of which was taken to place in a cell culture flask with a bottom area of 25 cm^2, supplemented with 4 mL of fresh complete medium for further incubation. When the cell confluence reached about 80% again, plating was conducted following the procedure of cell passage, retaining 1/5 cell suspension for further inculation and remaining 4/5 of the cell suspension in a 15 mL centrifuge tube. The cell suspension was centrifuged to discard the old culture medium, washed once using RPMI1640 culture medium (serum-free), and centrifuged to remove the supernatant. The cells were then re-suspended in RPMI1640 culture medium (serum-free). Cell viability was then detected by Trypan blue exclusion test and to be used for plating when the cell viability was confirmed to be more than 95%. A cell suspension with a density of 1.1×10^6 viable cells/mL was prepared using RPMI1640 culture medium (serum-free), and 180 μL of the cell suspension was added to a 96-well cell culture plate (NUNC Company, Cat #167008) so that the cell density in the plate was 2×10^5 viable cells/well.
A 10 mM stock solution of the compounds in DMSO was first serially diluted at 3.16-fold with DMSO (Sigma, Cat #D2650) to the 5th concentration, and the 6th concentration was set as DMSO control (compound-free). Then, the DMSO solutions containing different concentrations of the compounds were diluted at 10-fold with PBS so that the DMSO content in each compound solution of various concentrations was 10%. Finally, 20 μL of each of such solutions was added into corresponding cell culture plate to provide an initial compound concentration of 100 μM, with the dilution fold of adjacent concentrations being 3.16 and the DMSO content in the cell culture plate being 1%. The cell plate was placed in a cell incubator for further 24 hours.
ELISA detection was conducted referring to the instructions from R & D System, Cat #DY814-05.
ELISA plate coating: PBS (R & D System Cat #DY006) was used to dilute the capture antibody (mouse anti-human IFN-β capture antibody PART #844508) to provide the working concentration, and 100 μL capture antibody working solution was added to a 96-well ELISA plate which was then sealed and incubated overnight at room temperature. Upon discarding the capture antibody working solution, the cell plate was washed 3 times with a washing buffer (0.05% Tween-20 in PBS, pH 7.2-7.4, R & D System Cat #WA126) at 400 μL of the washing buffer per well, and the washing buffer was thoroughly removed after each washing, with the final washing to be completely removed of the wash buffer by inverting and claping the plate to a clean piece of paper. […]
Background: An ELISA detects its analyte on a solid surface through an enzyme-linked reagent.

Assay [2] deals with CT26 cells. The experiment in a line: Anti-tumor activity in bilateral transplantation tumor model of CT26 syngeneic mouse. As to conditions: Day 0 and Day 4; for Growth inhibition rate, untreated left tumor: Day 13 post-dose, 50 μg/mouse intratumorally right side; for Inhibition of tumor growth, treated right-side tumor: Day 13 post-dosing, 50 μg/mouse (2.5 mg/kg) intratumorally right side. It counts as in vivo, BALB/c mice. The method, then: BALB/c mice of 6-8 weeks (purchased from Shanghai Ling Chang Biotech Co., Ltd.) were inoculated with 5×10^5 CT26 cells (supplied by Taicang Zexin Biotechnology Co., Ltd., ATCC #CRL-2638) subcutaneously on the left and right back dorsal, respectively, and the inoculation volume was 0.1 mL/side. When tumors grew to an average volume of 100 mm^3, they were randomized according to tumor size and mouse body weight and dosing was initiated. The day of the first dose was Day 0.
Two doses were administered on Day 0 and Day 4, with 50 μg of compound/mouse (i.e., 2.5 mg/kg) injected intratumorally right side, with the same volume of PBS (Hyclone, Cat #SH30258.01) as a control. The tumor on the left side was not treated. The control mice were sacrificed 13 days and the treated mice were sacrificed 21 days, after dosing. During the experiment, tumor volumes on the left and right sides and the body weights were measured 3 times per week, and the tumor volume was calculated as V=D×d×d/2 (where D represents length of tumor and d represents width of tumor).

Where a name gives a salt, the structure may show the parent alone.

Take `Nc1nc2c(ncn2[C@@H]2O[C@@H]3CO[P@@](=O)(S)OC4C(F)[C@H](n5cnc6c(N)nc(Cl)nc65)O[C@@H]4CO[P@@](=O)(S)OC3C2O)c(=O)[nH]1` (stereo partly drawn) [Example 17, diammonium salt]: the EC50 – broadly, the concentration that produces a half-maximal response – in assay [1] (Homo sapiens, THP-1, 24 h) lay within 1 to 10 µM. In addition, in assay [1], the “Activating effect on IFN-β secretion / STING agonist activity (in words)” value was “significant STING agonist activity” and the “Highest concentration of IFN-β secreted by stimulated THP-1 cells” value is given as “higher than that of ADU-S100”. Also, in assay [2], the “Growth inhibition rate, untreated left tumor” value (“Growth inhibition rate” below) turned out to be 67.4% and the “Inhibition of tumor growth, treated right-side tumor” value is given as 99.5%.
`Nc1nc2c(ncn2[C@@H]2O[C@@H]3CO[P@@](=O)(S)OC4C(F)[C@H](n5cnc6c(N)nc(Cl)nc65)O[C@@H]4CO[P@@](=O)(S)OC2C3O)c(=O)[nH]1` (stereo partly drawn) [Example 10, (2′,3′)-cyclo-(Rp,Rp)-[2′-O-phosphorothioate-diester-guanosine]-[3′-O-phosphorothioate-diester-2-chloro-2′-deoxy-2′-fluoro-beta-adenosine] diammonium salt]: in assay [1] (Homo sapiens, THP-1, 24 h), the EC50 was in the range of 1 to 10 µM. Also, in assay [1], the “Activating effect on IFN-β secretion / STING agonist activity (in words)” value is given as “significant STING agonist activity” and the “Highest concentration of IFN-β secreted by stimulated THP-1 cells” value is “higher than that of ADU-S100”. The “Growth inhibition rate” value in assay [2] is 91.2%.
`Nc1ncnc2c1ncn2[C@@H]1O[C@@H]2COP(=O)([S-])O[C@@H]3[C@H](O)[C@@H](COP([O-])(=S)O[C@H]2[C@H]1O)O[C@H]3n1cnc2c(N)ncnc21.[Na+].[Na+]` (stereo partly drawn) [ADU-S100, reference compound] yielded an EC50 in assay [1] of 1 to 10 µM. Also, in assay [2], the “Growth inhibition rate” value was determined as 64.2% and the “Inhibition of tumor growth, treated right-side tumor” value is 99.1%.
